BindingDB's records for patent US20240033370 (Bolt Biotherapeutics, 2024)

Molecular target: T1, Toll-like receptor 7 (Homo sapiens, UniProt Q9NYK1)
T1 sequence (Q9NYK1 whole entry): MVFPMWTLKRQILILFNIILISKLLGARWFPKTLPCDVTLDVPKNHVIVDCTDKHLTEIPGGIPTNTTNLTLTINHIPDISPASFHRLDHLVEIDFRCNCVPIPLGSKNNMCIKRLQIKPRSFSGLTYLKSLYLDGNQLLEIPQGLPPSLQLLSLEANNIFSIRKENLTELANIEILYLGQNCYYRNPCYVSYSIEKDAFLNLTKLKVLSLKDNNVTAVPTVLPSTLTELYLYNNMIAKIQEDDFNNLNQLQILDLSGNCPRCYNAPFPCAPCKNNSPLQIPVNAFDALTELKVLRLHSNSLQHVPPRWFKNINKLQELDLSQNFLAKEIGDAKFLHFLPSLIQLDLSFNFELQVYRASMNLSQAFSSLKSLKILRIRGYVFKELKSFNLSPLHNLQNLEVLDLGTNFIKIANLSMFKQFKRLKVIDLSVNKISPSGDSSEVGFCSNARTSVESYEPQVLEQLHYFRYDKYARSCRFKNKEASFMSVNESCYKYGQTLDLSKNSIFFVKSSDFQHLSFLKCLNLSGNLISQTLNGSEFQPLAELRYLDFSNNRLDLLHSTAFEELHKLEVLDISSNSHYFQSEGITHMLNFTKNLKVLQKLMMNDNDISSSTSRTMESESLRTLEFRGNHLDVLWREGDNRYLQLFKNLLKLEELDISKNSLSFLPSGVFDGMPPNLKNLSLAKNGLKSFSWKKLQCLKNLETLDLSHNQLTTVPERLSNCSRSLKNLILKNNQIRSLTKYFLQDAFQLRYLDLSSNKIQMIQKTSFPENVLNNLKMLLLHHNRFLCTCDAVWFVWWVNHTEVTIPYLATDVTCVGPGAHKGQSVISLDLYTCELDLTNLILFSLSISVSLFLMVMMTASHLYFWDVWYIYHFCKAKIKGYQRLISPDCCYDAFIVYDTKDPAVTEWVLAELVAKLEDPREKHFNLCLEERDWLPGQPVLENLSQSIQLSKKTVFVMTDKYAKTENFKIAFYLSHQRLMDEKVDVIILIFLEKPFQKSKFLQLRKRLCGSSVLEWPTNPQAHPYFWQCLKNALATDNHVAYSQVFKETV
Experiment: HEK Reporter Assay
Procedure: HEK293 reporter cells expressing human TLR7 or human TLR8 were purchased from Invivogen and vendor protocols were followed for cellular propagation and experimentation. Briefly, cells were grown to 80-85% confluence at 5% CO2 in DMEM supplemented with 10% FBS, Zeocin, and Blasticidin. Cells were then seeded in 96-well flat plates at 4×10^4 cells/well with substrate containing HEK detection medium and immunostimulatory molecules. Activity was measured using a plate reader at 620-655 nm wavelength.

CCCNC(=O)C1=Cc2ccc(-c3cnc(CN)nc3)cc2N=C(N)C1 [US20240033370, Hx No. CycBz-5]
EC50: 35 nM
